Measurements taken from patent US7417156B2, “Orally active, antimalarial, anticancer, artemisinin-derived trioxane dimers” (Johns Hopkins University, priority 2002, dated 2008).
Where two headings read alike, the source gives them in different places.

Assays:
A549/ATCC = test: NCI 60 cell line panel screen (SRB); format: cell-based, human
CAKI-1 = test: NCI 60 cell line panel screen (SRB); format: cell-based, human; conditions: CAKI-1 (Renal Cancer); LC50: PG=−50
[1] = system: P. berghei NY malaria parasite; test: Antimalarial efficacies in vivo in mice; conditions: for ED50: Plasmodium berghei, read-out: ED50
Excerpt: Neither overt toxicity nor behavioral modification was observed due to drug administration in any of these mouse experiments.

SF-295 = test: NCI 60 cell line panel screen (SRB); format: cell-based, human
NCI-H522 = test: NCI 60 cell line panel screen (SRB); format: cell-based, human; conditions: for Log10TGI50: NCI-H522 (Non-Small Cell Lung Cancer), TGI: PG=0; for Log10LC50: NCI-H-522 (Non-Small Cell Lung Cancer), LC50: PG=−50; for Log10GI50: Non-Small Cell Lung Cancer, NCI-H522
[2] = Solubility in water at pH 7.4; format: physicochemical
SW-620 = test: NCI 60 cell line panel screen (SRB); format: cell-based, human
SN12C = test: NCI 60 cell line panel screen (SRB); format: cell-based, human
UACC-62 = test: NCI 60 cell line panel screen (SRB); format: cell-based, human
MDA-N = test: NCI 60 cell line panel screen (SRB); format: cell-based, human; conditions: Breast Cancer, MDA-N
HCC-2998 = test: NCI 60 cell line panel screen (SRB); format: cell-based, human
DU-145 = test: NCI 60 cell line panel screen (SRB); format: cell-based, human
OVCAR-4 = test: NCI 60 cell line panel screen (SRB); format: cell-based, human
SR = test: NCI 60 cell line panel screen (SRB); format: cell-based, human; conditions: SR (Leukemia)
LOX IMVI = test: NCI 60 cell line panel screen (SRB); format: cell-based, human
A498 = test: NCI 60 cell line panel screen (SRB); format: cell-based, human

`C[C@@H]1CC[C@H]2[C@@H](C)C(CC(O)(COC(=O)CCC(=O)O)CC3OC4O[C@]5(C)CC[C@H]6[C@H](C)CC[C@@H]([C@H]3C)C46OO5)OC3O[C@]4(C)CCC1C32OO4` (stereo partly shown) [Compound 9, tertiary alcohol primary succinate ester] showed a Log10LC50 (A549/ATCC; A549/ATCC (Non-Small Cell Lung Cancer), LC50: PG=−50) greater than −4.30 log10M, a Log10TGI50 (A549/ATCC; A549/ATCC (Non-Small Cell Lung Cancer), TGI: PG=0) greater than −4.30 log10M and a Log10GI50 (A549/ATCC; Non-Small Cell Lung Cancer, A549/ATCC) of −4.86. For the same compound, the Log10LC50 (CAKI-1) was greater than −4.30 log10M, the ED50 ([1]; route IV) was 2.4 mg/kg and the ED50 ([1]; route PO) was 4.8 mg/kg. For the same compound, the ED90 ([1]; route IV) was 11.0 mg/kg × 4, the “% Parasite Supression at 10 mg/kg” value ([1]; route IV) was 83.4% and the ED90 ([1]; route PO) was 34.0 mg/kg × 4. The “% Parasite Supression at 10 mg/kg” value ([1]; route PO) was 55.4%, the Log10GI50 (SF-295; CNS Cancer, SF-295) was less than −8.30 and the Log10LC50 (SF-295; SF-295 (CNS Cancer), LC50: PG=−50) was −4.60 log10M. It also gave a Log10TGI50 (SF-295; SF-295 (CNS Cancer), TGI: PG=0) of less than −8.30 log10M, a Log10TGI50 (NCI-H522) greater than −4.30 log10M and a Log10LC50 (NCI-H522) greater than −4.30 log10M. For the same compound, the Log10GI50 (NCI-H522) was −4.91 and the “water solubility relative to artelinic acid” value [2] was roughly 30 times.
Compound `CC(=O)O[C@H]1C(=O)[C@@]2(C)[C@H]([C@H](OC(=O)c3ccccc3)[C@]3(O)C[C@H](OC(=O)[C@H](O)[C@@H](NC(=O)c4ccccc4)c4ccccc4)C(C)=C1C3(C)C)[C@]1(OC(C)=O)CO[C@@H]1C[C@@H]2O` [Paclitaxel, paclitaxel, reference compound] has a Log10GI50 (SW-620; Colon Cancer, SW-620) of −11.60, a Log10LC50 (SW-620; SW-620 (Colon Cancer), LC50: PG=−50) greater than −4.00 log10M and a Log10TGI50 (SW-620; SW-620 (Colon Cancer), TGI: PG=0) greater than −4.00 log10M. It also gave a Log10GI50 (SN12C; Renal Cancer, SN12C) of −9.53, a Log10LC50 (SN12C; SN12C (Renal Cancer), LC50: PG=−50) greater than −4.00 log10M and a Log10GI50 (UACC-62; Melanoma, UACC-62) of −10.46. For the same compound, the Log10LC50 (UACC-62; UACC-62 (Melanoma), LC50: PG=−50) was −4.19 log10M, the Log10TGI50 (UACC-62; UACC-62 (Melanoma), TGI: PG=0) was −4.71 log10M and the Log10GI50 (MDA-N) was less than −13.00. The Log10GI50 (HCC-2998; Colon Cancer, HCC-2998) was −12.34, the Log10LC50 (HCC-2998; HCC-2998 (Colon Cancer), LC50: PG=−50) was −4.26 log10M and the Log10TGI50 (HCC-2998; HCC-2998 (Colon Cancer), TGI: PG=0) was −4.77 log10M. The Log10LC50 (DU-145; DU-145 (Prostate Cancer), LC50: PG=−50) was greater than −4.00 log10M, the Log10TGI50 (DU-145; DU-145 (Prostate Cancer), TGI: PG=0) was greater than −4.00 log10M and the Log10GI50 (DU-145; Prostate Cancer, DU-145) was −9.38. For the same compound, the Log10LC50 (OVCAR-4; OVCAR-4 (Ovarian Cancer), LC50: PG=−50) was greater than −4.00 log10M, the Log10TGI50 (OVCAR-4; OVCAR-4 (Ovarian Cancer), TGI: PG=0) was −4.19 log10M and the Log10GI50 (OVCAR-4; Ovarian Cancer, OVCAR-4) was −5.00. It also gave a Log10LC50 (CAKI-1) greater than −4.00 log10M, a Log10LC50 (SR; LC50: PG=−50) greater than −4.00 log10M and a Log10TGI50 (SR; TGI: PG=0) greater than −4.00 log10M. It also gave a Log10LC50 (LOX IMVI; LOX IMVI (Melanoma), LC50: PG=−50) greater than −4.15 log10M, a Log10TGI50 (LOX IMVI; LOX IMVI (Melanoma), TGI: PG=0) of −4.65 log10M and a Log10GI50 (LOX IMVI; Melanoma, LOX IMVI) of −11.80. It also gave a Log10TGI50 (NCI-H522) of −11.20 log10M, a Log10LC50 (NCI-H522) greater than −4.00 log10M and a Log10GI50 (NCI-H522) of less than −13.00. It also gave a Log10LC50 (A498; A498 (Renal Cancer), LC50: PG=−50) of −4.13 log10M and a Log10GI50 (A498; Renal Cancer, A498) of −7.14.
